Measurements from patent publication US11576922B2, “CD73 inhibitors” (ORIC Pharmaceuticals, Inc., priority 2017, dated 2023).
Several values for one entry are separate records, joined by “and”; a condition that tells them apart may be missing. Equal entries are not always repeated.

The compounds below were run against T1, CD73 (Homo sapiens, UniProt P21589) (assay: Example A1: Biochemical Assay (CD73 inhibition, Malachite Green detection of AMP hydrolysis)). Settings: CD73 0.3208 nM, AMP 15 μM, Tris-HCl pH 7.4, Malachite Green, absorbance 620 nm; read-out: Biochemical IC50.
T1 sequence (P21589 27-549): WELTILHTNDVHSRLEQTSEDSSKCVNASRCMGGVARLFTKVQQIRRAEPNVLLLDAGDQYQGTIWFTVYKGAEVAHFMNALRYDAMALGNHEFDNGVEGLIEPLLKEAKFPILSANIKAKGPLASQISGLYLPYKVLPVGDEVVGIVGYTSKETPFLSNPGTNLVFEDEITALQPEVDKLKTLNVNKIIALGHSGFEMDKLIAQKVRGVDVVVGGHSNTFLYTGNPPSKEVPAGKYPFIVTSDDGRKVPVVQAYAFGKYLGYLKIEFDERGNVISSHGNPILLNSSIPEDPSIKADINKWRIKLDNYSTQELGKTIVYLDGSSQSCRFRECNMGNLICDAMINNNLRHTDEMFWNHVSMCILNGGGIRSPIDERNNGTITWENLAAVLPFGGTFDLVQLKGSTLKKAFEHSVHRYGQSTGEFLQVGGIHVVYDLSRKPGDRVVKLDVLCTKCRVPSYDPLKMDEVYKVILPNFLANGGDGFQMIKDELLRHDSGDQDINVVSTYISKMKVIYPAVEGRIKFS
Description: Example A1: Biochemical Assay
Assay Reaction Conditions
• Assay Volume: 70 μl • Reaction Volume: 50 μl • CD73: 0.3208 nM • AMP: 15 μM • Assay Buffer: 2 5 mM Tris-HCL, pH 7.4, 0.01% Brij-35, 0.01% BSA, 5 mM MgCl2 Assay Procedure:
Made dose titration of testing compounds in assay buffer, 10 points ½ log titrations in duplicates starting at 100 μM.
Added 25 μl of CD73 to each well for a final concentration of […].
Incubated at RT for 15 min.
Added 25 μl of AMP to each well for a final concentration of 15 μM.
Incubated at RT for 10 min.
Added 10 μl of Malachite Green Reagent A, incubate at RT for 10 min.
Added 10 μl of Malachite Green Reagent B, incubate at RT for 45 min.
Read the Absorbance on Envision plate reader using excitation filter: Cy5 […].
The ability of the compounds disclosed herein to inhibit CD73 activity was quantified and the respective IC50 values were determined. Table 1 provides the biochemical IC50 values of compounds disclosed herein.

| SMILES | IC50 |
| --- | --- |
| O=P(O)(O)CP(=O)(O)OC[C@H]1O[C@@H](n2nnc3c(NCc4cccc(Cl)c4)nc(Cl)nc32)[C@H](O)[C@@H]1O [Example 14, (((((2R,3S,4R,5R)-5-(5-chloro-7-((3-chlorobenzyl)amino)-3H-[1,2,3]triazolo[4,5-d]pyrimidin-3-yl)-3,4-dihydroxytetrahydrofuran-2-yl)methoxy)(hydroxy)phosphoryl)methyl) phosphonic acid] | < 100 nM |
| Nc1nc(Cl)nc2c1nnn2[C@@H]1O[C@H](COP(=O)(O)CP(=O)(O)O)[C@@H](O)[C@H]1O [Example 4, (((((2R,3S,4R,5R)-5-(7-amino-5-chloro-3H-[1,2,3]triazolo[4,5-d]pyrimidin-3-yl)-3,4-dihydroxytetrahydrofuran-2-yl)methoxy)(hydroxy)phosphoryl)methyl) phosphonic acid] | > 1000 nM |
| C[C@H](Nc1nc(Cl)nc2c1nnn2[C@@H]1O[C@H](COP(=O)(O)CP(=O)(O)O)[C@@H](O)[C@H]1O)c1ccccc1 [Example 8, (((((2R,3S,4R,5R)-5-(5-chloro-7-(((S)-1-phenylethyl)amino)-3H-[1,2,3]triazolo[4,5-d]pyrimidin-3-yl)-3,4-dihydroxytetrahydrofuran-2-yl)methoxy)(hydroxy)phosphoryl)methyl) phosphonic acid] | < 100 nM |
| O=P(O)(O)CP(=O)(O)OC[C@H]1CC(n2nnc3c(NC4CCc5ccccc54)nc(Cl)nc32)[C@H](O)[C@@H]1O (stereo in doubt) [Example 35, (((((1R,2R,3S,4S)-4-(5-chloro-7-(((S)-2,3-dihydro-1H-inden-1-yl)amino)-3H-[1,2,3]triazolo[4,5-d]pyrimidin-3-yl)-2,3-dihydroxycyclopentyl)methoxy) (hydroxy)phosphoryl)methyl)phosphonic acid] | < 100 nM and 100 to 1000 nM |
| O=P(O)(O)CP(=O)(O)OC[C@H]1O[C@@H](n2nnc3c(N[C@H]4CCc5ccccc54)nc(Cl)nc32)[C@H](O)[C@@H]1O [Example 20, (((((2R,3S,4R,5R)-5-(5-chloro-7-(((S)-2,3-dihydro-1H-inden-1-yl)amino)-3H-[1,2,3]triazolo[4,5-d]pyrimidin-3-yl)-3,4-dihydroxytetrahydrofuran-2-yl)methoxy)(hydroxy)phosphoryl)methyl) phosphonic acid] | < 100 nM |
| COP(=O)(CP(=O)(O)O)OC[C@H]1O[C@@H](n2ncc3c(N(C)C4CCc5ccccc54)nc(Cl)nc32)[C@H](O)[C@@H]1O (stereo partly drawn) [Example 39, (((((2R,3S,4R,5R)-5-(6-Chloro-4-(((R)-2,3-dihydro-1H-inden-1-yl)(methyl)amino)-1H-pyrazolo[3,4-d]pyrimidin-1-yl)-3,4-dihydroxytetrahydrofuran-2-yl)methoxy)(methoxy)phosphoryl)methyl)phosphonic acid] | < 100 nM |
| O=P(O)(O)CP(=O)(O)OC[C@H]1O[C@@H](n2ncc3c(NCc4ccccc4Cl)nc(Cl)nc32)C[C@@H]1O [Example 41, (((((2R,3S,5R)-5-(6-chloro-4-((2-chlorobenzyl)amino)-1H-pyrazolo[3,4-d]pyrimidin-1-yl)-3-hydroxytetrahydrofuran-2-yl)methoxy)(hydroxy)phosphoryl)methyl) phosphonic acid] | 100 to 1000 nM |
| C[C@H](Nc1nc(Cl)nc2c1cnn2[C@@H]1O[C@H](COP(=O)(O)CP(=O)(O)O)[C@@H](O)[C@H]1O)c1ccccc1Cl [Example 46, (((((2R,3S,4R,5R)-5-(6-chloro-4-(((S)-1-(2-chlorophenyl)ethyl)amino)-1H-pyrazolo[3,4-d]pyrimidin-1-yl)-3,4-dihydroxytetrahydrofuran-2-yl)methoxy)(hydroxy)phosphoryl)methyl) phosphonic acid] | > 1000 nM |
